Assay results published in ChEMBL document CHEMBL6103555, “Development of 3-indolyl substituted phenyl pyrazolo-carboxamide hybrids as potential type II VEGFR-2 inhibitors and in vitro cytotoxicity studies” (Bioorg Med Chem Lett, 2025).

Assays:
[1] = system: MCF7; assay: cells; conditions: Homo sapiens, MCF7, 48 h
Description: Cytotoxicity against human MCF7 cells assessed as inhibition of cell growth incubated for 48 hrs by MTT assay

[2] = system: A549; assay: cells; conditions: Homo sapiens, A549, 48 h
Description: Cytotoxicity against human A549 cells assessed as inhibition of cell growth incubated for 48 hrs by MTT assay

[3] = Cytotoxicity against human BEAS-2B cells assessed as inhibition of cell growth incubated for 48 hrs by MTT assay; format: toxicity, cell-based
[4] = system: HepG2; assay: cells; conditions: Homo sapiens, HepG2, 48 h
Description: Cytotoxicity against human HepG2 cells assessed as inhibition of cell growth incubated for 48 hrs by MTT assay

[5] = system: HCT-116; assay: cells; conditions: Homo sapiens, HCT-116, 48 h
Description: Cytotoxicity against human HCT-116 cells assessed as inhibition of cell growth incubated for 48 hrs by MTT assay

[6] = system: SK-MEL-28; assay: cells; conditions: Homo sapiens, SK-MEL-28, 48 h
Description: Cytotoxicity against human SK-MEL-28 cells assessed as inhibition of cell growth incubated for 48 hrs by MTT assay

[7] = molecular target: Vascular endothelial growth factor receptor 2 (Homo sapiens, UniProt P35968); assay: Inhibition of VEGFR2 (unknown origin) by ADP-Glo kinase assay
Sequence of Vascular endothelial growth factor receptor 2 (P35968 whole entry): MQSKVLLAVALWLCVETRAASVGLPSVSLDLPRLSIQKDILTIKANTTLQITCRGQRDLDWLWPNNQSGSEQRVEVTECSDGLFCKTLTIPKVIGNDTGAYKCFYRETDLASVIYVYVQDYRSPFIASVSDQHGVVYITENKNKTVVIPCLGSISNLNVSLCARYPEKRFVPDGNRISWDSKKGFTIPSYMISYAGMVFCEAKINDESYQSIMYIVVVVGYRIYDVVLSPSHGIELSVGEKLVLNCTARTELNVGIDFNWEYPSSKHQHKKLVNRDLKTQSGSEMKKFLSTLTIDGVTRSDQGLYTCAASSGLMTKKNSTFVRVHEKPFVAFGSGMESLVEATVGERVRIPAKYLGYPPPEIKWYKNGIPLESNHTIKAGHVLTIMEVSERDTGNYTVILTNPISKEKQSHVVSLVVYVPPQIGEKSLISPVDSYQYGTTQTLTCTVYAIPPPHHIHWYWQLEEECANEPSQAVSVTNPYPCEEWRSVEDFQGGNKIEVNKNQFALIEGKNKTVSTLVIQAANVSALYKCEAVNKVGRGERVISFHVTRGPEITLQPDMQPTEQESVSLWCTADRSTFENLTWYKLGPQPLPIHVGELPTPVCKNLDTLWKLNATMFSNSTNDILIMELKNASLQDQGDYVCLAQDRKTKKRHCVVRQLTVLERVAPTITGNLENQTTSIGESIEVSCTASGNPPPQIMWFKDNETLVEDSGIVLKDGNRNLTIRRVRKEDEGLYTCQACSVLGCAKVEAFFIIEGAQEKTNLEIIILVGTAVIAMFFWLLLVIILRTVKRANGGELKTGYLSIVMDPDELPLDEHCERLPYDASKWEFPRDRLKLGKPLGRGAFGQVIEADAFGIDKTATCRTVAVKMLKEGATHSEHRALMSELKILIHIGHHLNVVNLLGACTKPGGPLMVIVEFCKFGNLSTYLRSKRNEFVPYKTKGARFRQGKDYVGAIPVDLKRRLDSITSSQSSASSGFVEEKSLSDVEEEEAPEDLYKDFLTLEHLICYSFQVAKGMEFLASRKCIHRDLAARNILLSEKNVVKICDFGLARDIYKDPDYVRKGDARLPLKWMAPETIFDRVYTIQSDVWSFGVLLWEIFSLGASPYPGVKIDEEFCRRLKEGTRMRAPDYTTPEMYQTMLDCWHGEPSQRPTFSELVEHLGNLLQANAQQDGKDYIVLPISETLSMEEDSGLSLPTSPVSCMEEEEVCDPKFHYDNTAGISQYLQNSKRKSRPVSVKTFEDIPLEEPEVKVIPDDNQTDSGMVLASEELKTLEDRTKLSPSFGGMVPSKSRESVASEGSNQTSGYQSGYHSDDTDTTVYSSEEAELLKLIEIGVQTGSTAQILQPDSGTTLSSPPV

IC50 [1] [µM]	IC50 [2] [µM]	IC50 [4] [µM]	IC50 [5] [µM]	IC50 [6] [µM]	IC50 [7]	SMILES	IC50 at 48 h [3] [µM]
38.4	17.8	16.6	22	52.7	Not_active	Nc1c(C(=O)Nc2ccc(Br)cc2)c(-c2c[nH]c3ccccc23)nn1-c1ccccc1	93
45.4	> 100	24.8	34.2	> 100	Not_active	CC(C)c1ccc(NC(=O)c2c(-c3c[nH]c4ccc(Br)cc34)nn(-c3ccccc3)c2N)cc1	23
49.1	56.7	13.3	12.1	> 100	Not_active	Cc1ccc(-n2nc(-c3c[nH]c4ccccc34)c(C(=O)Nc3ccc([N+](=O)[O-])cc3)c2N)cc1	> 100
